From patent publication US20250339462A1, “CANCER TREATMENT USING ULTRA-HIGH CONCENTRATION GASEOUS NITRIC OXIDE AND A CHECKPOINT INHIBITOR” (Beyond Air, Inc., priority 2022, published 2025)

Legend:
[1] = tested on: 4T1 tumor-bearing mice; assay: 4T1 breast cancer model, UNO/Anti-PD-1 Single Dose Study; assay type: in vivo, mouse; conditions: single-dose of UNO alone 50,000 ppm 10 min (FIG. 12A)
Protocol: Preparation of 4T1 cells: Cancer cell suspension, in Hanks' Balanced Salt Solution (HBSS) (Biological Industries, Israel), at a concentration of 5.0×10^6 cells/ml was freshly prepared on the day of the cancer model induction. Cells were grown to a 70-80% confluency and harvested using trypsin. The cells were centrifuged at 1,200 revolutions per minute (rpm)—241 G for 8 minutes, then the pellet was re-suspended in 1 ml of HBSS. The cells were counted using an automated cell counter and a suspension with a concentration of 5.0×10^6 cells/ml was prepared. Cell viability must be above 90% before cell inoculation to the mice, otherwise new cells will need to be prepared. […]
UNO and N2 treatment—On the day of treatment, mice were anesthetized by an intraperitoneal (i.p.) injection of 100 mg/kg of ketamine and 10 mg/kg of xylazine hydrochloride solution. […] After treatment, all mice were warmed and closely monitored until complete recovery was observed. […]
Anti-mPD-1 dosing started one day after UNO treatment. […] The primary tumor volume was assessed using a digital caliper using a standard formula. In addition, mice survival was evaluated. Mice were routinely weighed and monitored for health conditions using mouse distress scoring. Mice reaching a tumor volume of ≥1500 mm3 and/or a score of 12 were humanely euthanized, and the time of death was recorded.

[2] = tested on: AH-1+CD8+ T-cells (tumor antigen-specific CD8+ T-cells); assay: Flow cytometry for tumor antigen-specific CD8+ T-cells in blood of CT26 tumor-bearing mice; assay type: in vivo, mouse; conditions: day 7 after UNO treatment
Protocol: Preparation of cancer cells for injection—Mouse colon carcinoma CT26.WT cells (ATCC, Cat no. CRL-2638) suspended in Hanks' Balanced Salt Solution (HBSS) (Biological Industries, Israel), at a concentration of 5.0×10^6 cells/ml, were freshly prepared on the day of cancer model induction. Cells were grown to 70% confluency and were harvested using trypsin (Biological Industries, Israel), and counted using a cell counter device. The cells were then centrifuged at 1,200 rpm (241×g) for 8 minutes, and the pellet was re-suspended in ice cold HBSS at 5.0×10^6 in 1 ml (5.0×10^5 cells in 100 μl solution). Cell viability was >90% as determined by trypan blue staining prior to inoculation to mice. At the point of inoculation, cells were at passage 8 at most. […]
UNO treatment—On the day of treatment, mice were anesthetized by an intra-peritoneal (i.p.) injection of 100 mg/kg ketamine and 10 mg/kg of xylazine hydrochloride solution. […] After treatment, all mice were warmed and closely monitored until complete recovery was observed. […]
Flow cytometry for tumor antigen-specific CD8+ T-cells—On day 7 after the UNO treatment, 100 μl of peripheral blood was collected by submandibular bleeding from each mouse into tubes containing 0.5M EDTA PH 8.0. […] Data was analyzed using the FlowJo software.

## [N]=O [UNO, nitric oxide]
[1]
  Primary tumors smaller compared to anti-mPD-1 alone: 13.2%
[2]
  Systemic levels of AH-1+CD8+ T-cells vs untreated or naive mice: higher
[2]; UNO 100,000 ppm 5 min, anti-mCTLA-4 5 mg/kg i.p. twice
  AH-1+CD8+ T-cells in the blood: detected in the blood of all mice
